Assay results taken from ChEMBL document CHEMBL4038347, “Converting Teixobactin into a Cationic Antimicrobial Peptide (AMP)” (2017).
≈ marks a conversion by molar mass, not a printed value. Calls of active or inactive are those of the source. The rule behind the calls is not given here. Where a SMILES comes first, the peptide text is derived from it. Bridges are numbered along the chain shown (N, C = ends). [ ]: non-standard residue; d: D form. d(aIle) = CC[C@H](C)[C@@H](N)C(=O)O; dNMeF = CN[C@H](Cc1ccccc1)C(=O)O; Orn = NCCC[C@H](N)C(=O)O

Assays:
Type in all cases: functional
Escherichia coli = test: Antibacterial activity against Escherichia coli ATCC 25922 after 24 hrs by broth microdilution method
Pseudomonas aeruginosa = test: Antibacterial activity against Pseudomonas aeruginosa ATCC 27853 after 24 hrs by broth microdilution method
Staphylococcus aureus = test: Antibacterial activity against Staphylococcus aureus ATCC 29213 after 24 hrs by broth microdilution method
Bacillus subtilis = test: Antibacterial activity against Bacillus subtilis ATCC 6051 after 24 hrs by broth microdilution method

SMILES	MIC (Escherichia coli; ATCC 25922, 24 h)	MIC (Pseudomonas aeruginosa; ATCC 27853, 24 h)	MIC (Staphylococcus aureus; ATCC 29213, 24 h)	MIC (Bacillus subtilis; ATCC 6051, 24 h)	MIC (Escherichia coli)	MIC (Pseudomonas aeruginosa)	MIC (Staphylococcus aureus)	MIC (Bacillus subtilis)
CC[C@H](C)[C@H](NC(=O)[C@@H](Cc1ccccc1)NC)C(=O)N[C@@H](CO)C(=O)N[C@H](CCCCN)C(=O)N[C@@H](C(=O)N[C@H](C(=O)N[C@@H](CCCCN)C(=O)N[C@H]1C(=O)N[C@@H](CCCCN)C(=O)N[C@@H](CCCCN)C(=O)N[C@@H]([C@@H](C)CC)C(=O)O[C@H]1C)[C@@H](C)CC)[C@@H](C)CC (H-[dNMeF]IS[dK][d(aIle)]IK[dT]KKI; ester 8-C)	32 µg/mL (≈ 24.3 µM)	64 µg/mL (≈ 48.7 µM)	256 µg/mL (≈ 195 µM)	4 µg/mL (≈ 3.04 µM)				
CC[C@H](C)[C@H](NC(=O)[C@@H](Cc1ccccc1)NC)C(=O)N[C@@H](CCCCN)C(=O)N[C@H](CCCCN)C(=O)N[C@@H](C(=O)N[C@H](C(=O)N[C@@H](CO)C(=O)N[C@H]1C(=O)N[C@@H](C)C(=O)N[C@@H](CCCN)C(=O)N[C@@H]([C@@H](C)CC)C(=O)O[C@H]1C)[C@@H](C)CC)[C@@H](C)CC (H-[dNMeF]IK[dK][d(aIle)]IS[dT]A[Orn]I; ester 8-C)	64 µg/mL (≈ 51.5 µM)	64 µg/mL (≈ 51.5 µM)	16 µg/mL (≈ 12.9 µM)	4 µg/mL (≈ 3.22 µM)				
CC[C@H](C)[C@H](NC(=O)[C@@H](Cc1ccccc1)NC)C(=O)N[C@@H](CCCCN)C(=O)N[C@H](CCCCN)C(=O)N[C@@H](C(=O)N[C@H](C(=O)N[C@@H](CO)C(=O)N[C@H]1C(=O)N[C@@H](C)C(=O)N[C@@H](CCCCN)C(=O)N[C@@H]([C@@H](C)CC)C(=O)O[C@H]1C)[C@@H](C)CC)[C@@H](C)CC (H-[dNMeF]IK[dK][d(aIle)]IS[dT]AKI; ester 8-C)	32 µg/mL (≈ 25.4 µM)	32 µg/mL (≈ 25.4 µM)	8 µg/mL (≈ 6.36 µM)	1 µg/mL (≈ 0.795 µM)				
CC[C@H](C)[C@H](NC(=O)[C@@H](Cc1ccccc1)NC)C(=O)N[C@@H](CO)C(=O)N[C@H](CCC(N)=O)C(=O)N[C@@H](C(=O)N[C@H](C(=O)N[C@@H](CO)C(=O)N[C@H]1C(=O)N[C@@H](C)C(=O)N[C@@H](CC/N=C(\N(C)C)N2CCOCC2)C(=O)N[C@@H]([C@@H](C)CC)C(=O)O[C@H]1C)[C@@H](C)CC)[C@@H](C)CC			64 µg/mL (≈ 48.2 µM)	4 µg/mL (≈ 3.01 µM)	inactive	inactive		
CC[C@H](C)[C@H](NC(=O)[C@@H](Cc1ccccc1)NC)C(=O)N[C@@H](CCCCN)C(=O)N[C@H](CCC(N)=O)C(=O)N[C@@H](C(=O)N[C@H](C(=O)N[C@@H](CCCCN)C(=O)N[C@H]1C(=O)N[C@@H](C)C(=O)N[C@@H](CCCN)C(=O)N[C@@H]([C@@H](C)CC)C(=O)O[C@H]1C)[C@@H](C)CC)[C@@H](C)CC (stereo in doubt)				32 µg/mL (≈ 24.9 µM)	inactive	inactive	inactive	
CC[C@H](C)[C@H](NC(=O)[C@@H](Cc1ccccc1)NC)C(=O)N[C@@H](CCCCN)C(=O)N[C@H](CCCCN)C(=O)N[C@@H](C(=O)N[C@H](C(=O)N[C@@H](CO)C(=O)N[C@H]1C(=O)N[C@@H](CCCCN)C(=O)N[C@@H](CCCCN)C(=O)N[C@@H]([C@@H](C)CC)C(=O)O[C@H]1C)[C@@H](C)CC)[C@@H](C)CC	32 µg/mL (≈ 24.3 µM)	64 µg/mL (≈ 48.7 µM)	32 µg/mL (≈ 24.3 µM)	8 µg/mL (≈ 6.08 µM)				
CC[C@H](C)[C@H](NC(=O)[C@@H](CCCCN)NC)C(=O)N[C@@H](CO)C(=O)N[C@H](CCC(N)=O)C(=O)N[C@@H](C(=O)N[C@H](C(=O)N[C@@H](CO)C(=O)N[C@H]1C(=O)N[C@@H](C)C(=O)N[C@@H](CCCNC(=N)N)C(=O)N[C@@H]([C@@H](C)CC)C(=O)O[C@H]1C)[C@@H](C)CC)[C@@H](C)CC					inactive	inactive	inactive	inactive
CC[C@H](C)[C@H](NC(=O)[C@@H](Cc1ccccc1)NC)C(=O)N[C@@H](CCCCN)C(=O)N[C@H](CCC(N)=O)C(=O)N[C@@H](C(=O)N[C@H](C(=O)N[C@@H](CO)C(=O)N[C@H]1C(=O)N[C@@H](C)C(=O)N[C@@H](CCCN)C(=O)N[C@@H]([C@@H](C)CC)C(=O)O[C@H]1C)[C@@H](C)CC)[C@@H](C)CC	64 µg/mL (≈ 51.5 µM)	256 µg/mL (≈ 206 µM)	2 µg/mL (≈ 1.61 µM)	2 µg/mL (≈ 1.61 µM)				
